How the values were obtained:
Interstitial collagenase = biological target: T1, Interstitial collagenase (Homo sapiens, UniProt P03956); assay: Inhibition of matrix metalloprotease-1 (MMP-1)
T1 sequence (P03956 whole entry): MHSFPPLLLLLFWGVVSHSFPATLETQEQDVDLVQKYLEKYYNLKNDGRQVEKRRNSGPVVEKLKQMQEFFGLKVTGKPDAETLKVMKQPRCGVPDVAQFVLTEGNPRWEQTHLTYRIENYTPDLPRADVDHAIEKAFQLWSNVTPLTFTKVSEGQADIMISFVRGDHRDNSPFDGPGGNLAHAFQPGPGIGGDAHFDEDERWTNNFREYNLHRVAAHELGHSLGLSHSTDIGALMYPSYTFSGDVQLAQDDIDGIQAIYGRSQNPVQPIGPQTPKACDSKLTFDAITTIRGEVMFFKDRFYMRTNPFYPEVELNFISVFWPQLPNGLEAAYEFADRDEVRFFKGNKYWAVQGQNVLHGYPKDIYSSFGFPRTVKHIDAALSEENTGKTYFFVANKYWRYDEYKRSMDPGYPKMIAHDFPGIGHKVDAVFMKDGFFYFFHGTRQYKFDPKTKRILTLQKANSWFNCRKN

Stromelysin-1 = Stromelysin-1 (Homo sapiens, UniProt P08254)
Description: Inhibition of matrix metalloprotease-3 (MMP-3).

[1] = biological target: 72 kDa type IV collagenase (Homo sapiens, UniProt P08253); assay: Inhibition of matrix metalloprotease-2 (MMP-2)
Mus musculus [2] = assay: Compound was tested for inhibition of MMP-3 -mediated degradation of radiolabeled transferrin in mouse pleural cavity(PLCAV) at a dose 100 mg/kg administered perorally.; format: functional; conditions: route oral
Mus musculus [3] = assay: Compound was tested for inhibition of MMP-3 -mediated degradation of radiolabeled transferrin in mouse pleural cavity(PLCAV) at a dose 30 mg/kg administered intravenously.; format: functional; conditions: route intravenous

Chain of 72 kDa type IV collagenase (P08253 whole entry): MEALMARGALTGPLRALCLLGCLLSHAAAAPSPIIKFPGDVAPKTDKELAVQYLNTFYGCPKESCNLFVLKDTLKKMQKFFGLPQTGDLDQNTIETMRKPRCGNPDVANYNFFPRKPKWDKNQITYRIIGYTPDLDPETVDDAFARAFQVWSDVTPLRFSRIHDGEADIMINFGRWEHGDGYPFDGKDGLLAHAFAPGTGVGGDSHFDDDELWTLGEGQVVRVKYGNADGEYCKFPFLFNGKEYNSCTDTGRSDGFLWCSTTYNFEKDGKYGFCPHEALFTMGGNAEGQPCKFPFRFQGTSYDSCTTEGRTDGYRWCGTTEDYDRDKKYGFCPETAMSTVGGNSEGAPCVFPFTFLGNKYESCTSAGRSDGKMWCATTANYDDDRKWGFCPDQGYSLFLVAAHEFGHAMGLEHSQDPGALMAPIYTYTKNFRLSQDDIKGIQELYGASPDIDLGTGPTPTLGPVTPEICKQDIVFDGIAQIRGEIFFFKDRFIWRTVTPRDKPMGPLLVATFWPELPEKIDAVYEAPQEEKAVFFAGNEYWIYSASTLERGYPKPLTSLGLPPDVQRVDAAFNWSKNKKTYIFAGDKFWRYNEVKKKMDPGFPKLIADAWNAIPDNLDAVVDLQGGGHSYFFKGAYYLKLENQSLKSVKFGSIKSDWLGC
Chain of Stromelysin-1 (P08254 whole entry): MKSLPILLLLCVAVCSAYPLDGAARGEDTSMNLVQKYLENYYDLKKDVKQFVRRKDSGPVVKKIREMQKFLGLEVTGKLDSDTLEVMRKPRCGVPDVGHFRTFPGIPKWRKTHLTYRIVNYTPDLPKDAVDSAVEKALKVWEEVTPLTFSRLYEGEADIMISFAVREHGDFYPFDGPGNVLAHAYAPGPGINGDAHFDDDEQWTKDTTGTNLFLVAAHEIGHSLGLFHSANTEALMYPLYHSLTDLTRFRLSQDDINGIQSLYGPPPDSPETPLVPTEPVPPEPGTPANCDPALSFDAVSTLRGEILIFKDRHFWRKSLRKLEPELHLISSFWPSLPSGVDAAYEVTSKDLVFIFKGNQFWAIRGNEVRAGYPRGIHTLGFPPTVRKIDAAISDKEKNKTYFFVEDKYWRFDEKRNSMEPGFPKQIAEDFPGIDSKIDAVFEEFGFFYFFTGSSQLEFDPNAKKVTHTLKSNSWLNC

Ki (Interstitial collagenase)	Ki (Stromelysin-1)	Ki [1]	SMILES	inhibition in vivo at 100 mg/kg (Mus musculus [2])	inhibition in vivo at 30 mg/kg (Mus musculus [3])	ED50 (Mus musculus [2])
> 10 µM	0.36 nM	5.7 nM	CCCc1ccc(CC[C@H](C[C@H](CCCCN2Cc3ccccc3C2=O)C(=O)O)C(=O)N[C@@H](CC(C)C)C(=O)Nc2ccccc2)cc1	20%	82%	–
0.77 µM	–	–	CC(C)C[C@H](NC(=O)[C@H](CCc1ccccc1)N[C@H](C)C(=O)O)C(=O)Nc1ccccc1 [L-696418]	55%	50%	–
4.62 µM	3600 nM	470 nM	CC(C)C[C@H](NC(=O)[C@H](CCc1ccccc1)NCC(=O)O)C(=O)Nc1ccccc1	–	–	–
> 10 µM	140 nM	220 nM	CCCc1ccc(CC[C@H](CCC(=O)O)C(=O)N[C@@H](CC(C)C)C(=O)Nc2ccccc2)cc1	–	–	47 mg/kg
–	–	–	CCCc1ccc(CC[C@H](N[C@H](C)C(=O)O)C(=O)N[C@@H](CC(C)C)C(=O)Nc2ccccc2)cc1	–	63%	65 mg/kg
> 10 µM	5800 nM	> 1000 nM	CC(C)C[C@H](NC(=O)[C@@H](CCC(=O)O)CCc1ccccc1)C(=O)Nc1ccccc1	–	–	–
> 10 µM	68 nM	310 nM	CCCc1ccc(CC[C@H](C[C@H](C)C(=O)O)C(=O)N[C@@H](CC(C)C)C(=O)Nc2ccccc2)cc1	–	–	32 mg/kg
> 10 µM	1.9 nM	2.6 nM	CCCc1ccc(CC[C@H](N[C@H](CCCCN2C(=O)c3ccccc3C2=O)C(=O)O)C(=O)N[C@@H](CC(C)C)C(=O)Nc2ccccc2)cc1	–	89%	–
1.6 µM	9.5 nM	110 nM	CCCc1ccc(CC[C@H](N[C@H](CCCCN2Cc3ccccc3C2=O)C(=O)O)C(=O)N[C@@H](CC(C)C)C(=O)Nc2ccccc2)cc1	4%	81%	–
–	–	–	CC(C)C[C@H](NC(=O)[C@H](CCc1ccccc1)N[C@H](CCCCN1C(=O)c2ccccc2C1=O)C(=O)O)C(=O)Nc1ccccc1	1%	91%	–

Source: ChEMBL document CHEMBL1129006, “Orally active inhibitors of stromelysin-1 (MMP-3)” (Bioorg Med Chem Lett, 1996)
